Test results from patent publication US10851069B2, “Compositions of crystallized hydrophobic compounds and methods of making and using same” (Massachusetts Institute of Technology, priority 2016, dated 2020).

Assays:
[1] = system: C57BL/6 mice; test: Anti-fibrotic screening of amorphous drug formulations in 500 μm alginate capsules, 2-week intraperitoneal implantation; type: in vivo; settings: conclusion; alginate hydrogel, ceramic, glass, PDMS and polystyrene beads
Source text: For screening of anti-fibrotic drug activity, amorphous drug formulations were encapsulated inside 500 μm alginate capsules. Broad-spectrum anti-inflammatory agents curcumin, dexamethasone, and rapamycin have been used for preventing fibrosis of various biomaterials, such as polymer PLGA and hydrogel alginate. A panel of lead drug candidates (e.g., compounds of Formulae I-X) including the traditional broad-spectrum anti-inflammatories as well as agents targeted to essential macrophage biology pathways (e.g., TNFα, NFκB, p110δ/PI3K, TGFβ, and CSF1R) were selected. […] SLG20 alginate hydrogel spheres with these lead drug candidates were prepared as amorphous formulations to investigate the effect of macrophage immunomodulation on foreign body response. Drugs were encapsulated in amorphous form prepared by first dissolving in an organic solvent (e.g., vehicle in FIGS. 7, 9) then by mixing with alginate aqueous solution. Efficacy in preventing fibrosis was assessed in C57BL/6 mice at 2-weeks post implantation into the intraperitoneal (IP) cavity. Drug-containing spheres (500 μl/animal) were then implanted into the intraperitoneal space of C57BL/6 mice for 14 days. After this period, spheres were harvested and studied for cellular deposition and fibrosis.
All animal protocols were approved by the MIT Committee on Animal Care, and all surgical procedures and post-operative care was supervised by MIT Division of Comparative Medicine veterinary staff. Immune-competent male non-diabetic or STZ-induced diabetic C57BL/6 mice (Jackson Laboratory, Bar Harbor, Me.) were anesthetized with 3% isoflurane in oxygen and had their abdomens shaved and sterilized using betadine and isopropanol. Preoperatively, all mice also received a 0.05 mg/kg dose of buprenorphine subcutaneously as a pre-surgical analgesic, along with 0.3 mL of 0.9% saline subcutaneously to prevent dehydration. A […] incision was made along the midline of the abdomen and the peritoneal lining was exposed using blunt dissection. […]

[2] = system: non-human primates (cynomolgus macaques); test: Crystalline GW2580 alginate capsules (0.5 and 1.5 mm) implanted IP and SC in non-human primates, foreign body response; type: in vivo; settings: for macrophage responses on retrieved capsules (FACS): all cases of remaining drug
Experimental: Lead candidates identified in these studies, like GW2580, were subsequently tested in a non-human primate (NHP) model in which capsules (0.5 and 1.5 mm) were implanted in both the intraperitoneal (IP) and subcutaneous (SC) spaces (FIGS. 12 and 13C). […] IP space (lavage) drug concentrations were traced by LCMS fort each capsule type following retrieval time points, and found to drop from only 2-3 ng/ml at 4 weeks post-implantation to below detectable limit (0.5 ng/ml) beyond. […] And while 0.5 mm drug-loaded capsules became clumped at 3 months, they were not extensively embedded into surrounding omental tissue until 6 months (FIGS. 12, 23B and 23C).
For non-human primate (NHP) procedures, buprenorphine (0.01-0.03 mg/kg) was administered as a pre-operative analgesic. NHPs were then sedated using an intramuscular (IM) injection of ketamine (10 mg/kg) with an addition of midazolam as dictated by DCM vet staff if needed for additional sedation. Animals were maintained on a circulating warm water blanket and covered with a towel during the procedure to maintain body temperature. Either 0.5 or 1.5 mm diameter (drug-loaded) SLG20 spheres were implanted by minimally invasive laparoscopic surgery, and injected into the dorsal (back) regions of 4 non-human primates (cynomolgus macaques) using 18 and 12 gauge custom-manufactured (Harvard Apparatus) sterile stainless steel needles, with slip tip syringes in order to prevent shearing of our biomaterial upon injection. Needles were inserted tangentially to the backs of the NHPs, and were slid (tunneled) approximately 1-2 cm away from the initial injection point, in order to try to separate the injection from that of the site of eventual material response. Spheres (0.5 and 1.5 mm diameter) were injected into 4 total spots on the flank of 4 of our non-human primates: two spots on the left flank and two on the right, for 0.5 mm and 1.5 mm diameter sphere implants, respectively.
For non-human primate intraperitoneal and subcutaneous retrievals, similar to when material was implanted, NHPs were once again given buprenorphine (0.01-0.03 mg/kg) as a pre-operative analgesic, and sedated using an IM injection of ketamine (10 mg/kg), with midazolam as dictated by DCM vet staff if needed for additional sedation. Animals were once again maintained on a circulating warm water blanket and covered with a towel during the procedure to maintain body temperature. 8 mm diameter biopsy punches were then used to sample the entire skin and subcutaneous space at 2 and later at 4 weeks post-implantation. Following biopsy punches, the retrieval site was closed with 3-0 nylon in a simple-interrupted pattern and VetBond (tissue glue). For IP retrievals, minimally invasive laparoscopic surgery was also used (similar to implant procedures). […]

## COc1ccc(COc2ccc(Cc3cnc(N)nc3N)cc2OC)cc1 [GW2580, 5-[[3-Methoxy-4-[(4-methoxyphenyl)methoxy]phenyl]methyl]-2,4-pyrimidinediamine]
[1]
  efficacy in inhibiting fibrosis of implanted biomaterial: demonstrated efficacy in inhibiting fibrosis
[2]; 0.5 and 1.5 mm drug-loaded capsules, excised implant-site tissue
  sphere embedding and collagen deposition (H&E and Masson's Trichrome): lack of sphere embedding and collagen deposition
[2]; crystalline, 0.5 and 1.5 mm capsules, 2 and 4 weeks, IP and SC
  fibrosis development (phase contrast): prevented fibrosis development
[2]; crystalline, 0.5 and 1.5 mm capsules
  macrophage responses on retrieved capsules (FACS): significant inhibition of macrophage responses
[2]; crystalline, 0.5 and 1.5 mm capsules, listed as GW
  macrophage responses on retrieved capsules (FACS): reduced multiple orders of magnitude
